From US20230096663A1, “FARNESOID X RECEPTOR MODULATING COMPOUNDS AND METHODS OF USING THE SAME” (Inorbit Therapeutics AB, priority 2020, published 2023) come the findings set out here.

Molecules are shown by their SMILES. Read-outs that look alike come from different tables or passages of the source.

The target in data set [1] is T1, Human FXR receptor (NR1H4) (Homo sapiens, UniProt Q96RI1).
T1 sequence (Q96RI1 1-486): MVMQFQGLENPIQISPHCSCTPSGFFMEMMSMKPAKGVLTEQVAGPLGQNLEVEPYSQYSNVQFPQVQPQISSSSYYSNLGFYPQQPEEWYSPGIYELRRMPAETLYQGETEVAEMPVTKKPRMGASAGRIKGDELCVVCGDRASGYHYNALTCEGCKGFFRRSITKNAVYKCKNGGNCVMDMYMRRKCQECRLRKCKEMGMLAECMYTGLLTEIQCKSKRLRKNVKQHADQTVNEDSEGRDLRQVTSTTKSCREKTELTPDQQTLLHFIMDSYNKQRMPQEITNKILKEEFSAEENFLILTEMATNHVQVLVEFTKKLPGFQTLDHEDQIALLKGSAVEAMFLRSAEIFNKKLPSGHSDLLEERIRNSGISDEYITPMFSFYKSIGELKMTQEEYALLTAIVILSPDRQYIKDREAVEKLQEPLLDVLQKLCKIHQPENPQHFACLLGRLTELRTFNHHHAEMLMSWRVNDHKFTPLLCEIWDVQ
Kind of data set: Human Farnesoid X Receptor (NR1H4, FXR) reporter assay. Type of data set: cell-based. An excerpt:
Determination of a ligand mediated Gal4 promoter driven transactivation to quantify ligand binding mediated activation of FXR. A FXR Reporter Assay kit was purchased from Indigo Bioscience (#IB00601-32) to determine the potency and efficacy of compounds that can induce FXR activation. The nuclear receptor assay system utilizes non-human mammalian cells engineered to provide constitutive high level expression of Human FXR receptor (NR1H4), a ligand-dependent transcription factor. The reporter cells include luciferase reporter gene functionality linked to an FXR-response promoter. Quantifying changes in luciferase expression in the treated reporter cells provides a sensitive surrogate measure of the changes in FXR activity. […] Luminescence intensity of the reaction is quantified using a luminometer, and is reported in terms of Relative Light Units (RLU's). […] After incubation, the media was carefully removed, Luciferase detection solution was added and the plate read in a Luminometer. The data was calculated as per kit instructions, with increases in luminescence being directly proportional to increases in compound agonist activity.
(In general: In a reporter assay the amount or activity of a reporter protein is the signal.)

A short description of data set [2]: Compound exposure in plasma and liver of HFHC fed male mice. The data set is classed as in vivo. As to conditions: C57BL/6J, mouse, oral; for Kp at 4 h: liver/plasma, 4 hours after last dose on day 28, read-out: Ratio (liver to plasma exposure).
Data set [3] can be described thus: Metabolism in human microsomes. The data set is classed as in vitro ADME. The note with it: 37° C. The procedure: Microsomal mixes (247.5 μL) of human microsomes (1250 μL, 4 mg/ml), potassium phosphate buffer (1250 μL), alamethecin (12.5 μL, 5 mg/ml) and cofactors Nicotinamide Adenine Dinucleotide Phosphate NADPH (1250 μL, 4 mM)/uridine 5′-diphospho-glucuronic acid UDPGA (1250 μL, 4 mM) or UDPGA only were loaded onto a shaker for 10 minutes. The test compound (2.5 μL, 100 μM) was then separately added to both microsomal mixes (i.e., one mix with NADPH and one mix without NADPH), incubated at 37° C. and sampled at predetermined time points. Analysis was performed using a AB SCIEX QTRAP 4500 LC-MS/MS, a Kinetex C18, 50*4.6 mm, 5 μm column and eluting with 10 mM Ammonium Acetate/Methanol.
Table 3 summarizes the % of compound remaining after 45 minutes of incubation with human microsomes either in the presence of co-factors UDPGA and NADPH or UDPGA only.

The nature of data set [4]: Metabolic identification in human hepatocytes. The data set is classed as in vitro ADME. How it is done: A 10 mM stock of test compound from Example 2 (sodium 2-(3-((5-cyclopropyl-3-(2-(trifluoromethoxy)phenyl)isoxazol-4-yl)methoxy)-8-azabicyclo[3.2.1]octan-8-yl)-4-fluorobenzo[d]thiazole-6-sulfinate) was prepared in DMSO. 20 μM of final working stock was then prepared by diluting 4 μL of 10 mM stock in 1996 μL of Krebs-Hensleit buffer. 200 μL of hepatocyte cell suspension (2×10^6 cells/mL) was added to TPP 48 well plate and preincubated for 30 min @ 37° C. in incubator. 200 μL of 20 μM working stock of test compound was added to the cell suspension and incubated in an incubator on vibramax at a shaking speed of 500 rpm. For the 0 min sample, 25 μL of hepatocyte suspension was precipitated with 200 μL of acetonitrile and 25 μL of 20 μM test compound was added. The reaction was stopped at 15, 30, 60, 90, 120 min by precipitating 50 μL of incubation mixture with 200 μL of acetonitrile. The samples were vortexed for 5 min at 1200 rpm and centrifuged at 4000 rpm for 10 min. The supernatant was separated, diluted 2 fold with water and analysed using a HPLC (Shimadzu SIL HTS) and mass spectrometer (5500 Qtrap). Acetonitrile and 0.1% formic acid in Milli-q-water were used as the mobile phase, using a column of either Waters Xbridge C18, 250×3.0 mm, 5.0μ particle size or Phenomnex kinetex 5μ EVO C18 100 A, 50×4.6 mm 5.0μ particle size.
Table 4 summarizes the major metabolites observed when the compound of Example 2 of the invention was incubated in human, dog or mouse hepatocytes.

In the case of `O=S([O-])c1cc(F)c2nc(N3[C@@H]4CC[C@H]3C[C@@H](OCc3c(-c5ccccc5OC(F)(F)F)noc3C3CC3)C4)sc2c1.[Na+]` [Example 2, Sodium 2-(3-((5-cyclopropyl-3-(2-(trifluoromethoxy)phenyl)isoxazol-4-yl)methoxy)-8-azabicyclo[3.2.1]octan-8-yl)-4-fluorobenzo[d]thiazole-6-sulfinate], the EC50 (as a rule, the concentration giving half of the maximal effect) in data set [1] (Human FXR (NR1H4) luciferase reporter assay, 22-24 h) came to 460 nM. Also, the Efficacy in data set [1] (normalized to GW4064 set as 100%) was found to be 119%. Moreover, the concentration at 4 h in data set [2] (liver, 3 mg/kg, 3 mg/kg BID oral, 4 hours after last dose on day 28, read-out: Mean compound exposure, Liver) is 54.8 ng/g; in data set [2] (liver, 10 mg/kg, 10 mg/kg BID oral, 4 hours after last dose on day 28, read-out: Mean compound exposure, Liver), 138 ng/g; in data set [2] (liver, 10 mg/kg, 10 mg/kg QD oral, 4 hours after last dose on day 28, read-out: Mean compound exposure, Liver) it was 80.1 ng/g; in data set [2] (plasma, 3 mg/kg, 3 mg/kg BID oral, 4 hours after last dose on day 28, read-out: Mean compound exposure, Plasma), 1 ng/mL; in data set [2] (plasma, 10 mg/kg, 10 mg/kg BID oral, 4 hours after last dose on day 28, read-out: Mean compound exposure, Plasma), 2.1 ng/mL; in data set [2] (plasma, 10 mg/kg, 10 mg/kg QD oral, 4 hours after last dose on day 28, read-out: Mean compound exposure, Plasma), 1.2 ng/mL. Further, the Kp at 4 h is 54.8 in data set [2] (3 mg/kg, 3 mg/kg BID oral); 65.9 in data set [2] (10 mg/kg, 10 mg/kg BID oral); 66.8 in data set [2] (10 mg/kg, 10 mg/kg QD oral). Also, the “% remaining @ 45 mins of incubation with UDPGA” value in data set [3] (co-factor UDPGA only) is 94%. Besides, the “% remaining @ 45 mins of incubation with UDPGA and NADPH” value in data set [3] (co-factors UDPGA and NADPH) is recorded as 52%. Further, the “Major metabolite by MS/MS (FIG. 14)” value in data set [4] (120 mins) was “hydroxy compound”. Further, in data set [4] (up to 120 min), the Acyl-Glucuronide result was “No”. In addition, the “Observed Major Metabolites” value in data set [4] (up to 120 min) is “Hydroxy, Alkenyl and Alkenyl-hydroxy”.
